Patent US12378208B2, “N-substituted oseltamivir derivatives with antimicrobial activity” (THE HONG KONG POLYTECHNIC UNIVERSITY, priority 2019, dated 2025)

How the values were obtained:
IBV 12v33280 = experiment: Plaque assay in MDCK cells; format: cell-based, influenza B virus; conditions: for plaque size: MDCK, day 3, vs DMSO vehicle, both concentrations
IBV 12v33261 = experiment: Plaque assay in MDCK cells; format: cell-based, influenza B virus; conditions: for plaque size: MDCK, day 3, vs DMSO vehicle, both concentrations
NA from A/H3N2 = NA from A/H3N2 (Influenza A virus, UniProt O91745); experiment: biochemical; format: biochemical, seasonal A/H3N2; conditions: for IC50: Table 2, Example 32
Chain of NA from A/H3N2 (O91745 whole entry, looked up): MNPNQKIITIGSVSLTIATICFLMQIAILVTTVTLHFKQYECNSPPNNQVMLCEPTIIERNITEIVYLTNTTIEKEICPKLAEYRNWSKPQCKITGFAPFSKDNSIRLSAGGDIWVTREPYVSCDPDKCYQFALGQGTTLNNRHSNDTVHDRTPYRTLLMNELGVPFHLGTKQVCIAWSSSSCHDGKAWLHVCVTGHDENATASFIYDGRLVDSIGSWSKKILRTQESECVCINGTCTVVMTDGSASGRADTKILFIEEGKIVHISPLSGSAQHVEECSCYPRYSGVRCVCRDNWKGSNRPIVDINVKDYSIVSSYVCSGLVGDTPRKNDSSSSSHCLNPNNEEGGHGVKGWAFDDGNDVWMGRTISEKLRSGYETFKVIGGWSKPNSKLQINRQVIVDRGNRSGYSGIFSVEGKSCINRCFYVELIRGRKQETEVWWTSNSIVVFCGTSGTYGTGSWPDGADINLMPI

neuraminidase = neuraminidase (Influenza A virus, UniProt O91745); conditions: previous studies (Ye et al., 2019); read-out: half maximal inhibitory concentration (IC50); cited from earlier work
Chain of neuraminidase (O91745 whole entry): as the sequence (O91745 whole entry, looked up) above

[1] = system: influenza A virus A/OK/447/08 (H1N1); experiment: Plaque assay in MDCK cells; format: cell-based; conditions: for plaque count: two concentrations; for plaque size compared with 0.2 nM oseltamivir: both compounds at both concentrations vs 0.2 nM oseltamivir
[2] = system: influenza B virus (IBV) 12v28393; experiment: Plaque assay in MDCK cells; format: cell-based; conditions: for plaque size: MDCK, day 3, vs DMSO vehicle, both concentrations
[3] = 3.2 nM S22 vs 0.2 nM oseltamivir (p<0.01)

## CCC(CC)O[C@@H]1C=C(C(=O)O)C[C@H](NCc2noc(-c3ccco3)n2)[C@H]1NC(C)=O [Compound S7, (3R,4R,5S)-4-acetamido-5-(((5-(furan-2-yl)-1,2,4-oxadiazol-3-yl)methyl)amino)-3-(pentan-3-yloxy)cyclohex-1-ene-1-carboxylic acid]
IBV 12v33280
  plaque size: significantly reduce the plaque size
IBV 12v33261
  plaque size: significantly reduce the plaque size
NA from A/H3N2
  % Inhibition (1 nM): 28.1 ± 1.7%
  IC50: 1.92 ± 0.24 nM
neuraminidase
  IC50: 1.9 nM
[1]; […]
  plaque count: not plaque count
[1]
  plaque size compared with 0.2 nM oseltamivir: equally well
[2]; 3.8 nM S7 vs 3.2 nM S22 (p<0.05)
  inhibition compared with 3.2 nM S22: extra benefit
[2]
  plaque size: significantly reduce the plaque size

## CCOC(=O)C1=C[C@@H](OC(CC)CC)[C@H](NC(C)=O)[C@@H](N)C1 [oseltamivir]
neuraminidase
  IC50: 0.1 nM
[1]; […]
  plaque count: not plaque count
[1]; […], two concentrations (oseltamivir 0.1/0.2 nM, S7 1.9/3.8 nM, S22 1.6/3.2 nM)
  plaque size: reduction in plaque size

## CCC(CC)O[C@@H]1C=C(C(=O)O)C[C@H](NCc2noc(-c3cccc([N+](=O)[O-])c3)n2)[C@H]1NC(C)=O [Compound S6, (3R,4R,5S)-4-acetamido-5-(((5-(3-nitrophenyl)-1,2,4-oxadiazol-3-yl)methyl)amino)-3-(pentan-3-yloxy)cyclohex-1-ene-1-carboxylic acid]
NA from A/H3N2
  % Inhibition (1 nM): 18.4 ± 3.6%

## CCC(CC)O[C@@H]1C=C(C(=O)O)C[C@H](NC(=O)c2cc(C3CC3)nn2-c2cccc(C)c2)[C@H]1NC(C)=O [OC-027]
NA from A/H3N2
  Inhibition rate, 1 μM: 0.70%
  Inhibition rate, 10 μM: 31.53%

## CCC(CC)O[C@@H]1C=C(C(=O)O)C[C@H](NC(=O)c2cc(C3CC3)n(-c3ccccc3)n2)[C@H]1NC(C)=O [OC-021]
NA from A/H3N2
  Inhibition rate, 1 μM: 7.13%
  Inhibition rate, 10 μM: 30.57%

## CCC(CC)O[C@@H]1C=C(C(=O)O)C[C@H](NC(=O)c2cnn(Cc3ccc(OC)cc3)c2)[C@H]1NC(C)=O [OC-004]
NA from A/H3N2
  Inhibition rate, 1 μM: −0.21%
  Inhibition rate, 10 μM: 26.79%

## CCC(CC)O[C@@H]1C=C(C(=O)O)C[C@H](NC(=O)c2cnn(Cc3cccc([N+](=O)[O-])c3)c2)[C@H]1NC(C)=O [OC-007]
NA from A/H3N2
  Inhibition rate, 1 μM: −5.33%
  Inhibition rate, 10 μM: 12.26%

## CCC(CC)O[C@@H]1C=C(C(=O)O)C[C@H](NCc2ccc(-c3ccccc3C)o2)[C@H]1NC(C)=O [Compound S16, (3R,4R,5S)-4-Acetamido-3-(pentan-3-yloxy)-5-(((5-(o-tolyl)furan-2-yl)methyl)amino)cyclohex-1-ene-1-carboxylic acid]
NA from A/H3N2
  % Inhibition (1 nM): 8.4 ± 1.8%

## CCC(CC)O[C@@H]1C=C(C(=O)O)C[C@H](NCc2noc(-c3ccc(Cl)cc3)n2)[C@H]1NC(C)=O [Compound S12, (3R,4R,5S)-4-Acetamido-5-(((5-(4-chlorophenyl)-1,2,4-oxadiazol-3-yl)methyl)amino)-3-(pentan-3-yloxy)cyclohex-1-ene-1-carboxylic acid]
NA from A/H3N2
  % Inhibition (1 nM): 4.01 ± 5.9%

## CCC(CC)O[C@@H]1C=C(C(=O)O)C[C@H](NCc2ccc(-c3ccc(OC)cc3)o2)[C@H]1NC(C)=O [Compound S14, (3R,4R,5S)-4-Acetamido-5-(((5-(4-methoxyphenyl)furan-2-yl)methyl)amino)-3-(pentan-3-yloxy)cyclohex-1-ene-1-carboxylic acid]
NA from A/H3N2
  % Inhibition (1 nM): 14.7 ± 4.4%

## CCC(CC)O[C@@H]1C=C(C(=O)O)C[C@H](NCc2ccc(-c3c(C)noc3C)o2)[C@H]1NC(C)=O [Compound S22, (3R,4R,5S)-4-acetamido-5-(((5-(3,5-dimethylisoxazol-4-yl)furan-2-yl)methyl)amino)-3-(pentan-3-yloxy)cyclohex-1-ene-1-carboxylic acid]
IBV 12v33280; 1.6 nM S22 vs 0.2 nM oseltamivir (p<0.05)
  plaque size compared with 0.2 nM oseltamivir: extra benefit
IBV 12v33280; 1.6 nM S22 vs 1.9 nM S7 (p<0.05)
  inhibition compared with 1.9 nM S7: better
IBV 12v33280; [3]
  plaque size compared with 0.2 nM oseltamivir: better inhibition effect
IBV 12v33280; 3.2 nM S22 vs 1.9 nM S7 (p<0.01)
  inhibition compared with 1.9 nM S7: better
IBV 12v33280
  plaque size: significantly reduce the plaque size
IBV 12v33261; 3.2 nM S22 vs 0.2 nM oseltamivir (p<0.05)
  plaque size compared with 0.2 nM oseltamivir: better inhibition effect
IBV 12v33261
  plaque size: significantly reduce the plaque size
NA from A/H3N2
  % Inhibition (1 nM): 30.2 ± 1.5%
  IC50: 1.63 ± 0.16 nM
neuraminidase
  IC50: 1.6 nM
[1]; […]
  plaque count: not plaque count
[1]
  plaque size compared with 0.2 nM oseltamivir: equally well
[2]; [3]
  plaque size compared with 0.2 nM oseltamivir: better inhibition effect
[2]
  plaque size: significantly reduce the plaque size

## CCC(CC)O[C@@H]1C=C(C(=O)O)C[C@H](NCc2noc(-c3ccc(F)cc3)n2)[C@H]1NC(C)=O [Compound S3, (3R,4R,5S)-4-acetamido-5-(((5-(4-fluorophenyl)-1,2,4-oxadiazol-3-yl)methyl)amino)-3-(pentan-3-yloxy)cyclohex-1-ene-1-carboxylic acid]
NA from A/H3N2
  % Inhibition (1 nM): 0.0 ± 3.5%

## CCC(CC)O[C@@H]1C=C(C(=O)O)C[C@H](NC(=O)c2cc(-c3ccc(Cl)cc3)nn2CC2CCCCC2)[C@H]1NC(C)=O [OC-019]
NA from A/H3N2
  Inhibition rate, 1 μM: 11.62%
  Inhibition rate, 10 μM: 48.50%

## CCC(CC)O[C@@H]1C=C(C(=O)O)C[C@H](NCc2ccc(-c3ccsc3)o2)[C@H]1NC(C)=O [Compound S20, (3R,4R,5S)-4-Acetamido-3-(pentan-3-yloxy)-5-(((5-(thiophen-3-yl)furan-2-yl)methyl)amino)cyclohex-1-ene-1-carboxylic acid]
NA from A/H3N2
  % Inhibition (1 nM): 12.5 ± 2.3%

## CCC(CC)O[C@@H]1C=C(C(=O)O)C[C@H](NC(=O)c2cc(C3CC3)nn2-c2ccccc2)[C@H]1NC(C)=O [OC-013]
NA from A/H3N2
  Inhibition rate, 1 μM: 19.92%
  Inhibition rate, 10 μM: 30.41%
